Patent publication US20250360130A1, “METHODS OF TREATING INDOLENT SYSTEMIC MASTOCYTOSIS” (Telios Pharma Inc., priority 2024, published 2025)

What was measured:
[1] = biological target: BTK (Homo sapiens, UniProt Q06187); assay: Antigen-induced BTK phosphorylation in ISM-like mast cells; format: cell-based; design: Human mast cells were differentiated from bone marrow CD34+ cells from six healthy donors; endogenous in cells; host or cells: human mast cells differentiated from bone marrow CD34+ cells of healthy donors, cultured with SCF; settings: ISM-like (+SCF) mast cells, two hours treatment prior to stimulation
Chain of BTK (Q06187 whole entry): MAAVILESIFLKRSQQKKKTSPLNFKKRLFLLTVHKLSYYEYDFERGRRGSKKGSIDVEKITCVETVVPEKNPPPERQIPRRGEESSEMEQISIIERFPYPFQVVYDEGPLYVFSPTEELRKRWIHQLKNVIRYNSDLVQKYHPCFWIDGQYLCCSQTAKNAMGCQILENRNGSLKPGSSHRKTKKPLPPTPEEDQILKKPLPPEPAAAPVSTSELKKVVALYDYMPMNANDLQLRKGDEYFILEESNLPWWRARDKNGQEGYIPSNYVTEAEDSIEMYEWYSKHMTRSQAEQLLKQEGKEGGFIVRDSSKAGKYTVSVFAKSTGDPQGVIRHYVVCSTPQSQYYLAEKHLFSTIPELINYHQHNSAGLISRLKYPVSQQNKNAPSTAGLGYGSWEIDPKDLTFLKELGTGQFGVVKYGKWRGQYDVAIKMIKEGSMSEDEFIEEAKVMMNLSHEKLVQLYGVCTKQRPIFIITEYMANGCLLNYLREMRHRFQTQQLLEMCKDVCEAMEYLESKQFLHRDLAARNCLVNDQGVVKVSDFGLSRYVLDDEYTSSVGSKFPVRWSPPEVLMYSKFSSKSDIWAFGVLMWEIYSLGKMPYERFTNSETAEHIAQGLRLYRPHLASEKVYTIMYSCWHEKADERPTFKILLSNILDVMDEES
Protocol: Human mast cells were derived from bone marrow CD34+ cells from six healthy donors for up to eight weeks by culturing CD34+ cells in StemSpan SFEM II (Stem Cell Technologies) supplemented with stem cell factor (SCF; 100 ng/mL; R&D System), IL-6 (R&D Systems), IL-3 (R&D Systems) and 1% penicillin/streptomycin (P/S; Gibco) for the first 10 days and in StemSpan SFEM II supplemented with SCF and IL-6 and 1% P/S for the remaining time in culture. […] Supernatant was collected and histamine levels were measured using a Histamine ELISA kit (Eagle Biosciences). […] Percent of activated mast cells was calculated as number of activated mast cells over the total number of mast cells.
Human mast cells were differentiated from bone marrow CD34+ cells from six healthy donors, cultured and sensitized as set forth in Example 4. […] The median fluorescence intensity of phosphorylated BTK was measured. CD63 and histamine levels in these cells were measured and percent activated mast cells were calculated as set forth in Example 4. The percent of stimulated control for pBTK, activated mast cells (CD63+) and histamine levels was calculated. […]

[2] = tested on: serum tryptase; assay: Serum tryptase in ISM patients; format: in vivo, human; settings: 100 mg or 150 mg BID
Protocol: Also, blood samples were collected at the following timepoints: Cycle 1, Day 1: pre-dose (within 30 minutes prior to the morning dose), 0.5, 1.0, 2.0, 3.0, 4.0, and 6.0 hours (+15 minutes) post-morning dose. Cycle 1, Day 8: pre-dose (within 30 minutes prior to the morning dose) and 2 hours (+15 minutes) post-morning dose. Serum tryptase tests were conducted according to Example 14.
The measurement of serum tryptase can be followed to the procedure described in the literature (McMurray et al., Standardized indolent systemic mastocytosis evaluations across a health care system: implications for screening accuracy, Blood (2024) 144 (4): 408-419). Briefly, the procedure begins with proper patient preparation, avoiding recent physical activity or triggers that could cause mast cell activation. Venous blood samples, preferably drawn when the patient is not experiencing acute symptoms, are collected in serum separator tubes (SSTs) or plain red-top tubes, with approximately 5 mL of blood needed for analysis. After collection, the blood is allowed to clot at room temperature for 30-60 minutes before centrifugation for 10-15 minutes. The serum is then carefully separated from the cells and stored at 2-8° C. for short-term analysis or frozen at −20° C. or lower for long-term storage. […]

[3] = tested on: basophils; assay: Comparison of BTK inhibitors by BAT (CD63, CD203c); format: cell-based, human; settings: concentration of 1 μM, 2 hours, blood from a healthy donor
Protocol: The BAT assay using the Flow Cast Basophil Activation Kit (Buhlmann Diagnostics; Catalog #B-CCR-STCON) was then conducted following manufacturer instructions by (1) stimulating the blood with anti-FcεR stimulation control in stimulation buffer with IL-3 and staining cells for CCR3 and CD63 for 15 minutes at 37° C., (2) lysing red blood cells and fixing cells with Lysing Reagent at room temperature for 10 minutes, (3) washing cells with Wash Buffer, and (4) acquiring data on a flow cytometer. Activated basophils were defined as CCR3+, low side scatter and CD63+. Percent of activated basophils was calculated as number of activated basophils over the total number of basophils. A four-parameter logistic regression was applied to determine the EC50 and EC90.
Blood samples were gently rocked at room temperature for 2 hours. […] Activated basophils were also defined as CCR3+, low side scatter and CD203c+.

[4] = tested on: mast cells; assay: Downstream signaling proteins in antigen-stimulated mast cells (FIG. 20); format: cell-based; settings: mast cells stimulated with an antigen

C=CC(=O)N1CCC(F)(CNc2ncnc(N)c2-c2ccc(Oc3ccccc3)cc2)CC1 [Compound 128, 1-(4-(((6-amino-5-(4-phenoxyphenyl)pyrimidin-4-yl)amino)methyl)-4-fluoropiperidin-1-yl)prop-2-en-1-one]
IgE-mediated BTK phosphorylation [1]: potently inhibits
reduction in serum tryptase levels [2]: effective in reducing serum tryptase levels
basophil activation (CD63+, CD203c+) [3]: fully inhibits basophil activation
activation of multiple downstream signaling proteins [4]: can be inhibited
